These results are taken from patent publication US6627581B1, “Cyclopropyl-anellated 3-(4,5-dihydroisoxazol-3-yl)-substituted benzoylpyrazoles” (BASF Aktiengesellschaft, priority 1999, dated 2003).

The test system of data set [1] is Chenopodium album. The data set can be described thus: greenhouse post-emergence herbicidal test. The following applies: Chenopodium album (lambsquaters), application rates of 0.25 or 0.125 kg/ha, 2 to 4 weeks. In kind it is in vivo. The text has this: (§1) The cultivation containers used were plastic pots containing loamy sand with approximately 3.0% of humus as the substrate. The seeds of the test plants were sown separately for each species.
(§2) For the post-emergence treatment, the test plants were first grown to a height of from 3 to 15 cm, depending on the plant habit, and only then treated with the active compounds which had been suspended or emulsified in water. The test plants were for this purpose either sown directly and grown in the same containers, or they were first grown separately as seedlings and transplanted into the test containers a few days prior to treatment. The application rate for the post-emergence treatment was 0.25 or 0.125 kg of a.s. (active substance)/ha.
(§3) Depending on the species, the plants were kept at 10-25° C. or 20-35° C. The test period extended over from 2 to 4 weeks. During this time, the plants were tended, and their response to the individual treatments was evaluated.
(§4) The evaluation was carried out using a scale from 0 to 100. 100 means no emergence of the plants, or complete destruction of at least the aerial parts and 0 means no damage, or normal course of growth.
(§5) The plants used in the greenhouse experiments were of the following species: […]

The subject of data set [2] is Polygonum persicaria. The data set can be described thus: greenhouse post-emergence herbicidal test. In kind it is in vivo. The settings on record: Polygonum persicaria (ladysthumb), application rates of 0.25 or 0.125 kg/ha, 2 to 4 weeks.
Source text: as §1, §2, §3, §4, §5

Data set [3] relates to Echinochloa crus galli. As to the kind of experiment: greenhouse post-emergence herbicidal test. In kind it is in vivo. The following applies: Echinochloa crus galli (barnyardgrass), application rates of 0.25 or 0.125 kg/ha, 2 to 4 weeks.
Source text: as §1, §2, §3, §4, §5

In data set [4] the test system is Avena fatua. The data set can be described thus: greenhouse post-emergence herbicidal test. In kind it is in vivo. The following applies: Avena fatua (wild oat), application rates of 0.25 or 0.125 kg/ha, 2 to 4 weeks.
Source text: as §1, §2, §3, §4, §5

Data set [5] has as its system Amaranthus retroflexus. As to the kind of experiment: greenhouse post-emergence herbicidal test. In kind it is in vivo. The following applies: Amaranthus retroflexus (pig weed), application rates of 0.25 or 0.125 kg/ha, 2 to 4 weeks.
Source text: as §1, §2, §3, §4, §5

In data set [6] the test system is Setaria faberi. The data set can be described thus: greenhouse post-emergence herbicidal test. In kind it is in vivo. The following applies: Setaria faberi (giant foxtail), application rates of 0.25 or 0.125 kg/ha, 2 to 4 weeks.
Source text: as §1, §2, §3, §4, §5

As for `Cc1c(C(=O)c2cnn(C(C)(C)C)c2O)ccc(S(C)(=O)=O)c1C1=NOC2CC12` (centres unmarked) [Compound 2.1, 4-[2-Methyl-3-(2-oxa-3-aza-bicyclo[3.1.0]hex-3-en-4-yl)-4-methylsulfonylbenzoyl]-5-hydroxy-1-tert-butyl-1H-pyrazole], the melting point – broadly, the temperature, or range, at which the solid turns liquid – is 69 to 74 °C.
Still for that read-out and setting: under `CCn1ncc(C(=O)c2ccc(S(C)(=O)=O)c(C3=NOC4CC34)c2C)c1O` (centres unmarked) [Compound 2.2] stands 94 to 97 °C; under `Cc1c(C(=O)c2cnn(C)c2O)ccc(S(C)(=O)=O)c1C1=NOC2CC12` (centres unmarked) [Compound 2.3, 4-[2-Methyl-3-(2-oxa-3-azabicyclo[3.1.0]hex-3-en-4-yl)-4-methyl-sulfonylbenzoyl]-5-hydroxy-1-methyl-1H-pyrazole], 106 to 112 °C; under `Cc1c(C(=O)c2cnn(C(C)C)c2O)ccc(S(C)(=O)=O)c1C1=NOC2CC12` (centres unmarked) [Compound 2.4], 90 to 95 °C.
As to `Cc1nn(C)c(O)c1C(=O)c1ccc(S(C)(=O)=O)c(C2=NOC3CC23)c1C` (centres unmarked) [Compound 2.5], the melting point was in the range of 89 to 91 °C. Also, in data set [1], the post-emergence action result is on record as “very good”. Also, the post-emergence action entry in data set [2] is on record as “very good”. In addition, the post-emergence action result in data set [3] was “very good”. Besides, the post-emergence action entry in data set [4] is “very good”. The post-emergence action entry in data set [5] was “very good”. Moreover, the post-emergence action entry in data set [6] is on record as “very good”.
With `Cc1c(C(=O)c2cnn(C)c2O)ccc(S(C)(=O)=O)c1C1=NOC2(C)CC12` (centres unmarked) [Compound 2.7], the melting point fell in the range of 98 to 102 °C.
`Cc1c(C(=O)c2cnn(C(C)(C)C)c2O)ccc(S(C)(=O)=O)c1C1=NOC2(C)CC12` (centres unmarked) [Compound 2.10] returned a melting point of 90 to 95 °C.
`Cc1c(C(=O)c2cnn(C(C)C)c2O)ccc(S(C)(=O)=O)c1C1=NOC2(C)CC12` (centres unmarked) [Compound 2.11] came in with a melting point of 67 to 70 °C.
In turn, `Cc1c(C(=O)c2cnn(C)c2O)ccc(S(C)(=O)=O)c1C1=NOC2CC12C` (centres unmarked) [Compound 2.13] yielded a melting point of 99 to 103 °C.
The same measure, in the same setting: under `Cc1c(C(=O)c2cnn(C(C)C)c2O)ccc(S(C)(=O)=O)c1C1=NOC2CC12C` (centres unmarked) [Compound 2.14] stands 75 to 80 °C.
In turn, `Cc1c(C(=O)c2cnn(C(C)(C)C)c2O)ccc(S(C)(=O)=O)c1C1=NOC2CC12C` (centres unmarked) [Compound 2.16] showed a melting point of 110 to 115 °C.
